Reference: patent US20090012144A1 (priority 2000, published 2009)

test system: not listed separately; test: log P determination by HPLC (reversed-phase C 18), EEC Directive 79/831 Annex V.A8; format: physicochemical; conditions: HPLC, pH 2.3, 43° C.
Experimental: The log P values given in the tables and Preparation Examples above are determined in accordance with EEC Directive 79/831 Annex V.A8 by HPLC (High Performance Liquid Chromatography) using a reversed-phase column (C 18). Temperature: 43° C. […]
Calibration was carried out using unbranched alkan-2-ones (having 3 to 16 carbon atoms) with known log P values (determination of the log P values by the retention times using linear interpolation between two successive […]).

Row | log P (pH 2.3) | SMILES
1 | log P (pH 2.3) = 3.36 (purity 92.3%) | O=C1CC[C@@]2(c3ccc(Br)cc3)OC[C@H](c3ccccc3)N12 [IX-2, (3S,7aS)-7a-(4-Bromophenyl)-3-phenyltetrahydropyrrolo[2,1-b][1,3],oxazol-5(6H)-one]
2 | 3.42 | C=CCNC(=O)CCC(=O)c1ccc(-c2ccc(OC(F)(F)F)cc2)cc1 [XV-1, N-Allyl-4-oxo-4-[4′-(trifluoromethoxy)-1,1′-biphenyl-4-yl]butanamide]

same assay, conditions: HPLC, pH 2.3, 43° C.; read-out: log P (pH 2.3)

Row | SMILES | chromatographic logP
3 | Oc1ccc(-c2ccc([C@H]3CCC(c4c(F)cccc4F)=N3)cc2)cc1 [I-9] | 1.93
4 | CC(C)(C)OC(=O)N[C@H](CCC(=O)c1c(F)cccc1F)c1ccc(-c2ccc(OC(F)(F)F)cc2)cc1 [IV-1, tert-butyl (1R)-4-(2,6-difluorophenyl)-4-oxo-1-[4′-(trifluoromethoxy)-1,1′-biphenyl-4-yl]butylcarbamate] | 5.18
5 | CC(C)(C)OC(=O)N[C@H](CCC(=O)c1c(F)cccc1F)c1ccc(Br)cc1 [IV-2, tert-butyl (1R)-1-(4-bromophenyl)-4-(2,6-difluorophenyl)-4-oxobutylcarbamate] | 4.22
6 | CC(C)(C)OC(=O)N[C@H](CCC(=O)c1c(F)cccc1F)c1ccc(-c2ccc(C#N)cc2)cc1 [IV-4] | 4.1
7 | CC(C)(C)OC(=O)N1C(=O)CC[C@@H]1c1ccc(-c2ccc(OC(F)(F)F)cc2)cc1 [V-1, tert-butyl (5R)-2-oxo-5-[4′-(trifluoromethoxy)-1,1′-biphenyl-4-yl]-1-pyrrolidine carboxylate] | 4.32

same assay, conditions: reversed-phase C18 HPLC column, pH 2.3, HPLC, pH 2.3, 43° C.; read-out: log P (pH 2.3)

Row | chromatographic logP | SMILES
8 | 4.08 | Fc1cccc(F)c1C1=N[C@@H](c2ccc(-c3ccc(OC(F)(F)F)cc3)cc2)CC1 [I-3, (2R)-5-(2,6-difluorophenyl)-2-[4′-(trifluoromethoxy)-1,1′-biphenyl-4-yl]-3,4-dihydro-2H-pyrrole]
9 | 3.92 | O=S(=O)(c1ccc(-c2ccc([C@H]3CCC(c4c(F)cccc4F)=N3)cc2)cc1)C(F)(F)F [I-11, (2R)-5-(2,6-difluorophenyl)-2-{4′-[(trifluoromethyl)sulphonyl]-1,1′-biphenyl-4-yl}-3,4-dihydro-2H-pyrrole]
10 | 2.74 | Fc1cccc(F)c1C1=N[C@@H](c2ccc(Br)cc2)CC1 [I-15, (2R)-2-(4-bromophenyl)-5-(2,6-difluorophenyl)-3,4-dihydro-2H-pyrrole]
11 | 2.85 | N#Cc1ccc(-c2ccc([C@H]3CCC(c4c(F)cccc4F)=N3)cc2)cc1 [I-17]
12 | 4.55 | O=C1CC[C@@]2(c3ccc(-c4ccc(OC(F)(F)F)cc4)cc3)OC[C@H](c3ccccc3)N12 [IX-1, (3S,7aS)-3-Phenyl-7a-[4′-(trifluoromethoxy)-1,1′-biphenyl-4-yl]tetrahydropyrrolo-[2,1-b][1,3]oxazol-5(6H)-one]
13 | 3.04 | CC(C)(C)OC(=O)N1C(=O)CC[C@@H]1c1ccc(Br)cc1 [V-2, tert-butyl (2R)-2-(4-bromophenyl)-5-oxo-1-pyrrolidinecarboxylate]
14 | 3.02 | CC(C)(C)OC(=O)N1C(=O)CC[C@@H]1c1ccc(-c2ccc(C#N)cc2)cc1 [V-4]
15 | 2.95 | O=C1CC[C@H](c2ccc(-c3ccc(OC(F)(F)F)cc3)cc2)N1 [VII-1, (5R)-5-[4′-(Trifluoromethoxy)-1,1′-biphenyl-4-yl]-2-pyrrolidinone]
16 | 3.54 | O=C1CC[C@H](c2ccc(Br)cc2)N1 [VII-2, (5R)-5-(4-Bromophenyl)-2-pyrrolidinone]
17 | 4.01 | COC(=O)CCC(=O)c1ccc(-c2ccc(OC(F)(F)F)cc2)cc1 [VIII-a-1, Methyl-4-oxo-4-[4′-(trifluoromethoxy)-1,1′-biphenyl-4-yl]butanoate]
18 | 3.8 | O=C1CC[C@H](c2ccc(-c3ccc(OC(F)(F)F)cc3)cc2)N1[C@H](CO)c1ccccc1 [X-1, (5R)-1-[(1S)-2-Hydroxy-1-phenylethyl]-5-[4′-(trifluoromethoxy)-1,1′-biphenyl-4-yl]-2-pyrrolidinone]
19 | 2.58 | O=C1CC[C@H](c2ccc(Br)cc2)N1[C@H](CO)c1ccccc1 [X-2, (5R)-5-(4-Bromophenyl)-1-[(1S)-2-hydroxy-1-phenylethyl]-2-pyrrolidinone]
20 | 4.78 | O=C1CC[C@H](c2ccc(-c3ccc(OC(F)(F)F)cc3)cc2)N1[C@H](CCl)c1ccccc1 [XI-1, (5R)-1-[(1S)-2-Chloro-1-phenylethyl]-5-[4′-(trifluoromethoxy)-1,1′-biphenyl-4-yl]-2-pyrrolidinone]
21 | 3.61 | O=C1CC[C@H](c2ccc(Br)cc2)N1[C@H](CCl)c1ccccc1 [XI-2, (5R)-5-(4-Bromophenyl)-1-[(1S)-2-chloro-1-phenylethyl]-2-pyrrolidinone]
22 | 4.35 | C=C(c1ccccc1)N1C(=O)CC[C@@H]1c1ccc(-c2ccc(OC(F)(F)F)cc2)cc1 [XII-1, (5R)-1-(1-Phenylvinyl)-5-[4′-(trifluoromethoxy)-1,1′-biphenyl-4-yl]-2-pyrrolidinone]
23 | 3.18 | C=C(c1ccccc1)N1C(=O)CC[C@@H]1c1ccc(Br)cc1 [XII-2, (5R)-5-(4-Bromophenyl)-1-(1-phenylvinyl)-2-pyrrolidinone]
24 | 3.34 | C=CCNC(=O)CCC(=O)c1ccc(-c2ccc(OC(F)(F)F)cc2)cc1 [XV-1, N-Allyl-4-oxo-4-[4′-(trifluoromethoxy)-1,1′-biphenyl-4-yl]butanamide]
25 | 2.99 | C=CCNC(=O)CC[C@H](O)c1ccc(-c2ccc(OC(F)(F)F)cc2)cc1 [XVI-1, (4S)—N-Allyl-4-hydroxy-4-[4′-(trifluoromethoxy)-1,1′-biphenyl-4-yl]butanamide]
26 | 3.88 | C=CCN1C(=O)CC[C@@H]1c1ccc(-c2ccc(OC(F)(F)F)cc2)cc1 [XVII-1, (5R)-1-Allyl-5-[4′-(trifluoromethoxy)-1,1′-biphenyl-4-yl]-2-pyrrolidinone]

same assay, conditions: reversed-phase C18 HPLC column, pH 2.3, pH not given; read-out: log p/m.p.: log P

Row | chromatographic logP | SMILES
27 | 3.92 | O=S(=O)(c1ccc(-c2ccc([C@H]3CCC(c4c(F)cccc4F)=N3)cc2)cc1)C(F)(F)F [I-11, (2R)-5-(2,6-difluorophenyl)-2-{4′-[(trifluoromethyl)sulphonyl]-1,1′-biphenyl-4-yl}-3,4-dihydro-2H-pyrrole]

same assay, conditions: reversed-phase C18 HPLC column, pH 7, HPLC, pH 7; read-out: log P (pH 7)

Row | chromatographic logP | SMILES
28 | 4.47 | CC1(C)OB(c2ccc([C@H]3CCC(c4c(F)cccc4F)=N3)cc2)OC1(C)C [I-b-1, (2R)-5-(2,6-difluorophenyl)-2-[4-(4,4,5,5-tetramethyl-1,3,2-dioxaborolan-2-yl)phenyl]-3,4-dihydro-2H-pyrrole]

test system: Plutella xylostella; test: Plutella test (cabbage leaves, dip); format: in vivo; conditions: 0.01 ppm
Experimental: (§1) [table] To produce a suitable preparation of active compound, 1 part by weight of active compound is mixed with the stated amounts of solvent and emulsifier, and the concentrate is diluted with emulsifier-containing water to the desired concentration. Cabbage leaves (Brassica oleracea) are treated by being dipped into the preparation of active compound of the desired concentration and are populated with caterpillars of the diamond back moth (Plutella xylostella) while the leaves are still moist. After the desired period of time, the kill in % is determined. 100% means that all caterpillars have been killed; 0% means that none of the caterpillars have been killed.

Row | SMILES | Kill rate in % after 6 d [%]
29 | Fc1cccc(F)c1C1=NC(c2ccc(-c3ccc(OC(F)(F)F)cc3)cc2)CC1 (stereo not shown) [drawing 71] | 0
30 | Fc1cccc(F)c1C1=N[C@@H](c2ccc(-c3ccc(OC(F)(F)F)cc3)cc2)CC1 [drawing 72] | 100

same assay, conditions: 0.0128 ppm

Row | SMILES | Kill rate in % after 6 d [%]
31 | Fc1cccc(F)c1C1=NC(c2ccc(-c3ccc(SC(F)(F)F)cc3)cc2)CC1 (stereo not shown) [drawing 74] | 10
32 | Fc1cccc(F)c1C1=N[C@@H](c2ccc(-c3ccc(SC(F)(F)F)cc3)cc2)CC1 [drawing 75] | 45

same assay, conditions: 1.6 ppm

Row | SMILES | Kill rate in % after 6 d [%]
33 | Fc1cccc(F)c1C1=N[C@H](c2ccc(-c3ccc(OC(F)(F)F)cc3)cc2)CC1 [drawing 73] | 0
34 | Fc1cccc(F)c1C1=N[C@H](c2ccc(-c3ccc(SC(F)(F)F)cc3)cc2)CC1 [drawing 76] | 5

test system: Spodoptera exigua; test: Spodoptera exigua test (cabbage leaves, dip); format: in vivo; conditions: 0.04 ppm
Experimental: as §1, with “army worm (Spodoptera exigua)” for “diamond back moth (Plutella xylostella)”

Row | SMILES | Kill rate in % after 6 d [%]
35 | Fc1cccc(F)c1C1=NC(c2ccc(-c3ccc(OC(F)(F)F)cc3)cc2)CC1 (stereo not shown) [drawing 80] | 55
36 | Fc1cccc(F)c1C1=N[C@@H](c2ccc(-c3ccc(OC(F)(F)F)cc3)cc2)CC1 [drawing 81] | 100

same assay, conditions: 1.6 ppm

Row | SMILES | Kill rate in % after 6 d [%]
37 | Fc1cccc(F)c1C1=N[C@H](c2ccc(-c3ccc(OC(F)(F)C(F)F)cc3)cc2)CC1 | 0
38 | Fc1cccc(F)c1C1=N[C@@H](c2ccc(-c3ccc(SC(F)(F)F)cc3)cc2)CC1 [drawing 83] | 100
39 | Fc1cccc(F)c1C1=N[C@H](c2ccc(-c3ccc(SC(F)(F)F)cc3)cc2)CC1 [drawing 84] | 0

same assay, conditions: 8 ppm

Row | SMILES | Kill rate in % after 6 d [%]
40 | Fc1cccc(F)c1C1=N[C@H](c2ccc(-c3ccc(OC(F)(F)F)cc3)cc2)CC1 [drawing 82] | 0

test system: Spodoptera frugiperda; test: Spodoptera frugiperda test (cabbage leaves, dip); format: in vivo; conditions: 0.0128 ppm
Experimental: as §1, with “army worm (Spodoptera frugiperda)” for “diamond back moth (Plutella xylostella)”

Row | SMILES | Kill rate in % after 6 d [%]
41 | Fc1cccc(F)c1C1=NC(c2ccc(-c3ccc(SC(F)(F)F)cc3)cc2)CC1 (stereo not shown) [drawing 91] | 20
42 | Fc1cccc(F)c1C1=N[C@@H](c2ccc(-c3ccc(SC(F)(F)F)cc3)cc2)CC1 [drawing 92] | 65

same assay, conditions: 0.02 ppm

Row | SMILES | Kill rate in % after 6 d [%]
43 | Fc1cccc(F)c1C1=NC(c2ccc(-c3ccc(OC(F)(F)F)cc3)cc2)CC1 (stereo not shown) [drawing 88] | 25
44 | Fc1cccc(F)c1C1=N[C@@H](c2ccc(-c3ccc(OC(F)(F)F)cc3)cc2)CC1 [drawing 89] | 100

same assay, conditions: 1.6 ppm

Row | SMILES | Kill rate in % after 6 d [%]
45 | Fc1cccc(F)c1C1=N[C@H](c2ccc(-c3ccc(SC(F)(F)F)cc3)cc2)CC1 [drawing 93] | 10

same assay, conditions: 8 ppm

Row | SMILES | Kill rate in % after 6 d [%]
46 | Fc1cccc(F)c1C1=N[C@H](c2ccc(-c3ccc(OC(F)(F)F)cc3)cc2)CC1 [drawing 90] | 0
